Non-standard residues stand in square brackets, D forms with d. Residues, ends and D or L forms follow the SMILES beside them. *: point of attachment. Hyp = O=C(O)[C@@H]1C[C@@H](O)CN1; NMeD = CN[C@@H](CC(=O)O)C(=O)O; pGlu = O=C1CC[C@@H](C(=O)O)N1; Boc = CC(C)(C)OC(=O)*; Aib = CC(C)(N)C(=O)O; βAla = NCCC(=O)O
target: T1, General amino-acid permease GAP1 (Saccharomyces cerevisiae) (UniProt P19145); experiment: Noncompetitive inhibition of nitrogen-starved wild type sigma1278b yeast Gap1-mediated amino acid uptake at 5 mM after 60 secs relative to L-citrulline; conditions: not given
T1 sequence (whole entry): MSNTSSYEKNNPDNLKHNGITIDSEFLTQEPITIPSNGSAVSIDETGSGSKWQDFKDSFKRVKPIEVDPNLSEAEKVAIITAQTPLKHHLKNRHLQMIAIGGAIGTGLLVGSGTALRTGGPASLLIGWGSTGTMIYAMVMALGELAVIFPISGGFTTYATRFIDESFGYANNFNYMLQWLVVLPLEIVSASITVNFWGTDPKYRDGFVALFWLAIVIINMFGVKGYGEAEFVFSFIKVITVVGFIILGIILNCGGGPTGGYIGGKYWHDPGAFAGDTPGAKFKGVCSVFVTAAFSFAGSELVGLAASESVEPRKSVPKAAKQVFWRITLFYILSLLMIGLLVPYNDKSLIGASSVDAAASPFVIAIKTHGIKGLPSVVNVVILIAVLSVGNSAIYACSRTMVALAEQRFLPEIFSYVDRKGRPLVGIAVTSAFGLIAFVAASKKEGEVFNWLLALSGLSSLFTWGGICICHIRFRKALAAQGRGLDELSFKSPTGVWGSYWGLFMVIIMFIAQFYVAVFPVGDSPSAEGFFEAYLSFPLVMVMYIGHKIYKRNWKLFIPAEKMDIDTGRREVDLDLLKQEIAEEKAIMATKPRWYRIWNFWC

`CC(C)[C@H](NC(=O)CNC(=O)[C@H](C)N)C(=O)O` (H-Ala-Gly-Val-OH) and `C[C@H](N)C(=O)NCC(=O)N[C@@H](C)C(=O)O` (H-Ala-Gly-Ala-OH) cannot be ordered by inhibition: over 30% for the first, over 30% for the second.

Going from `N=C(N)NCCC[C@H](N)C(=O)NCC(=O)NCC(=O)O` (H-Arg-Gly-Gly-OH) to `CC(C)C[C@H](NC(=O)[C@@H](N)CC(C)C)C(=O)N[C@@H](C)C(=O)O` (H-Leu-Leu-Ala-OH), the inhibition falls from over 30% to 15%.

Going from `CC(C)C[C@H](NC(=O)[C@H](CC(C)C)NC(=O)CCN)C(=O)O` (H-[βAla]-Leu-Leu-OH) to `CC(C)C[C@H](N)C(=O)N[C@H](CC(C)C)C(=O)O`, the inhibition rises from 15% to over 30%.

Going from `CC(C)C[C@H](NC(=O)[C@@H](NC(=O)[C@@H](N)CC(C)C)C(C)C)C(=O)O` (H-Leu-Val-Leu-OH) to `CC(C)C[C@H](NC(=O)CCCCN)C(=O)O`, the inhibition rises from 15% to over 30%.

target: T1, General amino-acid permease GAP1 (Saccharomyces cerevisiae); conditions: sigma1278b, at 5 mM
Description: Inhibition of nitrogen-starved wild type sigma1278b yeast Gap1-mediated amino acid uptake at 5 mM after 60 secs relative to L-citrulline

First: NCC(=O)N[C@@H](Cc1c[nH]c2ccccc12)C(=O)O (H-Gly-Trp-OH)
Second: CC(=O)N[C@@H](Cc1c[nH]c2ccccc12)C(=O)O
The inhibition of the first is higher: over 30% for the first, under 15% for the second.

First: CC(C)(C)OC(=O)NC(Cc1ccc(O)cc1)C(=O)O (stereo in doubt)
Second: CC(C)(C)OC(=O)N[C@@H](Cc1ccccc1)C(=O)O
The inhibition of the first is lower: under 15% for the first, over 30% for the second.

`CC(C)C[C@H](N)C(=O)NCC(=O)NCC(=O)O` (H-Leu-Gly-Gly-OH) and `N[C@@H](Cc1cnc[nH]1)C(=O)NCC(=O)NCC(=O)O` (H-His-Gly-Gly-OH) cannot be ordered by inhibition: under 15% for the first, under 15% for the second.

`N[C@@H](Cc1cnc[nH]1)C(=O)NCC(=O)N[C@@H](Cc1cnc[nH]1)C(=O)O` (H-His-Gly-His-OH) and `NCC(=O)N[C@@H](Cc1cnc[nH]1)C(=O)NCC(=O)O` (H-Gly-His-Gly-OH) cannot be ordered by inhibition: under 15% for the first, under 15% for the second.

Compared with `C[C@@H](O)[C@H](NC(=O)[C@H](CCCCN)NC(=O)[C@@H](N)Cc1ccc(O)cc1)C(=O)O` (H-Tyr-Lys-Thr-OH), `NCCCC[C@H](NC(=O)[C@@H](N)Cc1ccc(O)cc1)C(=O)O` (H-Tyr-Lys-OH) is higher in inhibition: under 15% for the first, over 30% for the second.

`C[C@H](NC(=O)OC(C)(C)C)C(=O)NC(C)(C)C(=O)O` (Boc-Ala-[Aib]-OH) and `CC(C)C[C@@H](NC(=O)OC(C)(C)C)C(=O)O` cannot be ordered by inhibition: under 15% for the first, under 15% for the second.

`CC(C)(C)OC(=O)N[C@@H](CCCNC(=N)N)C(=O)O` and `CC(C)(C)OC(=O)NCCC[C@H](N)C(=O)O` cannot be ordered by inhibition: under 15% for the first, under 15% for the second.

`CC(C)(C)OC(=O)NC1(C(=O)O)CCCC1` and `CC[C@H](C)[C@H](NC(=O)OC(C)(C)C)C(=O)O` cannot be ordered by inhibition: under 15% for the first, under 15% for the second.

First: N=C(N)NCCC[C@H](NC(=O)[C@@H](N)Cc1ccccc1)C(=O)O (H-Phe-Arg-OH)
Second: CSCC[C@H](N)C(=O)N[C@@H](CCCNC(=N)N)C(=O)N[C@@H](Cc1ccccc1)C(=O)O (H-Met-Arg-Phe-OH)
The inhibition of the first is lower: under 15% for the first, 15% for the second.

First: CC(C)C[C@H](NC(=O)CN)C(=O)N[C@@H](Cc1ccc(O)cc1)C(=O)O (H-Gly-Leu-Tyr-OH)
Second: CC(C)C[C@H](N)C(=O)N[C@@H](Cc1ccc(O)cc1)C(=O)O
The inhibition of the first is lower: under 15% for the first, over 30% for the second.

`O=C(O)[C@@H]1CCCN1C(=O)[C@@H]1C[C@@H](O)CN1C(=O)[C@@H]1CCCN1` (H-Pro-[Hyp]-Pro-OH) and `CC(=O)N1CCC[C@H]1C(=O)N[C@@H](Cc1ccccc1)C(=O)N[C@@H](CCCNC(=N)N)C(=O)O` (Ac-Pro-Phe-Arg-OH) cannot be ordered by inhibition: under 15% for the first, under 15% for the second.

`CSCC[C@H](NC(=O)[C@@H](N)Cc1ccc(O)cc1)C(=O)O` (H-Tyr-Met-OH) and `CSCC[C@H](NC(=O)[C@@H](N)Cc1ccc(O)cc1)C(=O)NCC(=O)O` (H-Tyr-Met-Gly-OH) cannot be ordered by inhibition: under 15% for the first, under 15% for the second.

First: CC(C)C[C@H](NC(=O)CN)C(N)=O
Second: CC(C)C[C@H](NC(=O)CN)C(=O)O (racemic)
The inhibition of the first is lower: under 15% for the first, 15% for the second.

Compared with `CC(=O)NC(Cc1ccc(Br)cc1)C(=O)O` (racemic), `NCC(=O)NCC(=O)N[C@@H](Cc1ccc(O)cc1)C(=O)O` (H-Gly-Gly-Tyr-OH) is lower in inhibition: 15% for the first, under 15% for the second.

First: CSCC[C@H](NC(=O)[C@H](C)N)C(=O)O (H-Ala-Met-OH)
Second: CSCC[C@H](NC(=O)[C@@H](N)CCSC)C(=O)O (H-Met-Met-OH)
The inhibition of the first is higher: over 30% for the first, under 15% for the second.

`CC[C@H](C)[C@H](N)C(=O)N[C@@H](CO)C(=O)O` (H-Ile-Ser-OH) and `N[C@@H](CO)C(=O)N[C@@H](CO)C(=O)O` (H-Ser-Ser-OH) cannot be ordered by inhibition: under 15% for the first, under 15% for the second.

`NCC(=O)NCCC(=O)NCCS(=O)(=O)O` and `NCC(=O)NCCC(=O)O` cannot be ordered by inhibition: under 15% for the first, under 15% for the second.

Going from `N[C@@H](Cc1cnc[nH]1)C(=O)N[C@@H](Cc1ccccc1)C(=O)O` (H-His-Phe-OH) to `NCC(=O)N[C@H](Cc1ccccc1)C(=O)O`, the inhibition rises from under 15% to over 30%.

`CN[C@@H](CC(=O)O)C(=O)N[C@@H](Cc1ccccc1)C(N)=O` (H-[NMeD]-Phe-NH2) and `N[C@@H](Cc1ccccc1)C(=O)NCC(=O)O` (H-Phe-Gly-OH) cannot be ordered by inhibition: under 15% for the first, under 15% for the second.

`CC(C)C[C@H](NC(=O)[C@@H](N)[C@@H](C)O)C(=O)O` (H-Thr-Leu-OH) and `CC(C)C[C@H](NC(=O)[C@@H](N)CC(C)C)C(=O)O` cannot be ordered by inhibition: under 15% for the first, under 15% for the second.

`COC(=O)[C@@H](N)Cc1c[nH]c2ccccc12` and `COC(=O)[C@@H](N)CO` cannot be ordered by inhibition: under 15% for the first, under 15% for the second.

`N[C@@H](Cc1ccc(O)cc1)C(=O)NCC(=O)NCC(=O)O` (H-Tyr-Gly-Gly-OH) and `CSCC[C@@H](N)C(=O)NCC(=O)O` (H-[dM]-Gly-OH) cannot be ordered by inhibition: under 15% for the first, under 15% for the second.

`CSCC[C@H](NC(=O)CN)C(=O)O` and `C[C@@H](NC(=O)CN)C(=O)O` (H-Gly-[dA]-OH) cannot be ordered by inhibition: under 15% for the first, under 15% for the second.

Going from `CC(C)C[C@H](NC(=O)[C@H](CC(C)C)NC(=O)[C@@H](N)CC(=O)O)C(=O)O` (H-Asp-Leu-Leu-OH) to `CC(C)C[C@H](NC(=O)[C@@H](N)CC(C)C)C(=O)N[C@H](C(=O)O)C(C)C` (H-Leu-Leu-Val-OH), the inhibition falls from 15% to under 15%.

`NCC(=O)NCCCC(=O)O` and `NCC(=O)NCC(N)=O` cannot be ordered by inhibition: under 15% for the first, under 15% for the second.

`CC(C)[C@H](NC(=O)CNC(=O)CN)C(=O)O` (H-Gly-Gly-Val-OH) and `CC[C@H](C)[C@H](NC(=O)CNC(=O)CN)C(=O)O` (H-Gly-Gly-Ile-OH) cannot be ordered by inhibition: under 15% for the first, under 15% for the second.

`C[C@H](NC(=O)[C@H](Cc1cnc[nH]1)NC(=O)CN)C(=O)O` (H-Gly-His-Ala-OH) and `CC(C)C[C@H](NC(=O)[C@H](Cc1cnc[nH]1)NC(=O)CN)C(N)=O` (H-Gly-His-Leu-NH2) cannot be ordered by inhibition: under 15% for the first, under 15% for the second.

`COC(=O)[C@@H](N)CCCCN` and `COC(=O)[C@@H](N)C(C)C` cannot be ordered by inhibition: under 15% for the first, under 15% for the second.

`CN[C@@H](Cc1cnc[nH]1)C(=O)O` and `O=C(O)CNC(=O)[C@H](Cc1cnc[nH]1)NC(=O)[C@@H]1CCC(=O)N1` ([pGlu]-His-Gly-OH) cannot be ordered by inhibition: under 15% for the first, under 15% for the second.

`CC(C)C[C@@H](N)CO` and `CC(C)[C@H](N)C(N)=O` cannot be ordered by inhibition: under 15% for the first, under 15% for the second.

Going from `CC(C)C[C@H](N)C(=O)N[C@H](C(=O)O)C(C)C` (H-Leu-Val-OH) to `CC[C@H](C)[C@H](NC(=O)[C@H](C)N)C(=O)O` (H-Ala-Ile-OH), the inhibition rises from under 15% to 15%.

`NCCS(=O)(=O)O` and `N=C(N)NCCC[C@H](NC(=O)[C@@H](N)CC(=O)O)C(=O)O` (H-Asp-Arg-OH) cannot be ordered by inhibition: under 15% for the first, under 15% for the second.

`COC(=O)[C@@H]1C[C@@H](O)CN1` showed an inhibition of under 15%.

— ChEMBL document CHEMBL1221220, “Transport and signaling via the amino acid binding site of the yeast Gap1 amino acid transceptor” (Nat Chem Biol, 2009)
